# Measurements as given in patent publication US5721208A, “Glycopeptides a process for their preparation and their use” (Hoechst Aktiengesellschaft, priority 1991, dated 1998).
# How the values were obtained:
# [1] = tested on: Staph. aureus 503; assay: Minimum bacteriostatic inhibitory concentration, Agar dilution method; type: cell-based
# [2] = tested on: Staph. aureus 285; assay: as above; type: cell-based
# [3] = tested on: Strept. pyogenes 77 A; assay: as above; type: cell-based
# [4] = tested on: Escherichia coli DC 2; assay: as above; type: cell-based
# [5] = tested on: Staph. aureus SG 511; assay: as above; type: cell-based
# [6] = tested on: Strept. faecium D; assay: as above; type: cell-based
# [7] = tested on: Strept. pyogenes 308 A; assay: as above; type: cell-based
# [8] = tested on: Bact. fragilis 1313; assay: as above; type: cell-based
# [9] = tested on: Propioni acnes 6922; assay: as above; type: cell-based
# [10] = tested on: Bact. fragilis 960; assay: as above; type: cell-based
# [11] = tested on: Clostridium tetani ATCC 1940650; details: Agar dilution method
# [12] = tested on: Propioni acnes 6916; assay: Minimum bacteriostatic inhibitory concentration, Agar dilution method; type: cell-based
# [13] = tested on: Bact. fragilis 312; assay: as above; type: cell-based
# [14] = tested on: Peptostrept. anaerob. 932; assay: as above; type: cell-based
# [15] = tested on: Bact. vulgatus 1446; assay: as above; type: cell-based
# [16] = tested on: Clostridium perfringens 194; details: Agar dilution method
molecule,measurement,setting,value
balhimycin V,Minimum bacteriostatic inhibitory concentration,[1],0.1 micrograms per milliliter
same,Minimum bacteriostatic inhibitory concentration,[2],0.4 micrograms per milliliter
same,Minimum bacteriostatic inhibitory concentration,[3],0.05 micrograms per milliliter
same,Minimum bacteriostatic inhibitory concentration,[4],> 100 micrograms per milliliter
same,Minimum bacteriostatic inhibitory concentration,[5],0.4 micrograms per milliliter
same,Minimum bacteriostatic inhibitory concentration,[6],0.2 micrograms per milliliter
same,Minimum bacteriostatic inhibitory concentration,[7],0.05 micrograms per milliliter
balhimycin R,Minimum bacteriostatic inhibitory concentration,[1],0.2 micrograms per milliliter
same,Minimum bacteriostatic inhibitory concentration,[8],> 100 micrograms per milliliter
same,Minimum bacteriostatic inhibitory concentration,[9],3.1 micrograms per milliliter
same,Minimum bacteriostatic inhibitory concentration,[10],> 100 micrograms per milliliter
same,Minimum bacteriostatic inhibitory concentration,[2],0.8 micrograms per milliliter
same,Minimum bacteriostatic inhibitory concentration,[11],100 micrograms per milliliter
same,Minimum bacteriostatic inhibitory concentration,[12],6.2 micrograms per milliliter
same,Minimum bacteriostatic inhibitory concentration,[13],> 100 micrograms per milliliter
same,Minimum bacteriostatic inhibitory concentration,[3],0.2 micrograms per milliliter
same,Minimum bacteriostatic inhibitory concentration,[4],50 micrograms per milliliter
same,Minimum bacteriostatic inhibitory concentration,[14],100 micrograms per milliliter
same,Minimum bacteriostatic inhibitory concentration,[5],0.2 micrograms per milliliter
same,Minimum bacteriostatic inhibitory concentration,[6],0.4 micrograms per milliliter
same,Minimum bacteriostatic inhibitory concentration,[15],> 100 micrograms per milliliter
same,Minimum bacteriostatic inhibitory concentration,[7],0.2 micrograms per milliliter
"CC(C)CC(N)C(=O)NC1C(=O)NC(CC(N)=O)C(=O)NC2C(=O)NC3C(=O)NC(C(=O)NC(C(=O)O)c4cc(O)cc(O)c4-c4cc3ccc4O)C(OC3CC(C)(N)C(=O)C(C)O3)c3ccc(c(Cl)c3)Oc3cc2cc(c3O)Oc2ccc(cc2Cl)C1O (stereo not shown) [Desmethyl-desglucobalhimycin, desmethyl-desglucobalhimycin]",Minimum bacteriostatic inhibitory concentration,[16],0.1 micrograms per milliliter
same,Minimum bacteriostatic inhibitory concentration,[1],0.1 micrograms per milliliter
same,Minimum bacteriostatic inhibitory concentration,[8],50 micrograms per milliliter
same,Minimum bacteriostatic inhibitory concentration,[9],0.1 micrograms per milliliter
same,Minimum bacteriostatic inhibitory concentration,[10],25 micrograms per milliliter
same,Minimum bacteriostatic inhibitory concentration,[2],0.2 micrograms per milliliter
same,Minimum bacteriostatic inhibitory concentration,[12],0.2 micrograms per milliliter
same,Minimum bacteriostatic inhibitory concentration,[13],50 micrograms per milliliter
same,Minimum bacteriostatic inhibitory concentration,[3],0.1 micrograms per milliliter
same,Minimum bacteriostatic inhibitory concentration,[4],> 100 micrograms per milliliter
same,Minimum bacteriostatic inhibitory concentration,[14],0.2 micrograms per milliliter
same,Minimum bacteriostatic inhibitory concentration,[5],0.2 micrograms per milliliter
same,Minimum bacteriostatic inhibitory concentration,[6],0.2 micrograms per milliliter
same,Minimum bacteriostatic inhibitory concentration,[15],> 100 micrograms per milliliter
same,Minimum bacteriostatic inhibitory concentration,[7],0.1 micrograms per milliliter
